# Source: patent US20070072939A1, “Cannabinoid active pharmaceutical ingredient for improved dosage forms” (Euro-Celtique, S.A., priority 2005, published 2007)
# Legend:
# [1] = sufficiently purified trans-(+)-Δ^9-THC; cited from earlier work
# [2] = delivery by inhalation (e.g., by smoking); cited from earlier work
# [3] = purified resinous material, background statement; cited from earlier work
# [4] = stability of the substance to air, light and temperature (appearance)
compound,measurement,setting,value
"CCCCCc1cc(O)c2c(c1)OC(C)(C)[C@H]1CCC(C)=C[C@H]21 [trans-(+)-Δ^9-THC, trans-(+)-Δ^9-tetrahydrocannabinol]",activity relative to the trans-(−)-Δ^9-THC enantiomer,[1],~1%
"CCCCCc1cc(O)c2c(c1)OC(C)(C)[C@@H]1CCC(C)=C[C@@H]21 [trans-(−)-Δ^9-THC, (−)-6a, 10a-trans-Δ^9-tetrahydrocannabinol]",onset of pharmacological activity,[2],≤ 10 minutes
same,"chemical stability to light, oxygen and heat",[3],"chemically unstable to light, oxygen, and heat"
trans-(±)-Δ^9-tetrahydrocannabinol [crystalline trans-(±)-Δ^9-THC],stability,"[4]; 25° C. in the presence of air and laboratory lighting, Example 12 material",stable
same,retention of white appearance,"[4]; 25° C., Example 10 material, expected",retain that white appearance for at least three days
same,appearance after storage,[4]; held for three days at room temperature in the presence of air and laboratory lighting,remained white
